Earlier results on three compounds are cited in US8435575B2, “Use of gingerols for cancer patients suffering from nausea and emesis induced by chemotherapy” (priority 2010, dated 2013).

Series [1] has as its system vection-induced motion sickness. Conditions: college students with self-reported high susceptibility to motion sickness.
The test system of series [2] is post surgical nausea and vomiting. Particulars: oral ginger, 1.25 mg intravenous droperidol; 24 hour period following surgery.
In series [3] the test system is post-operative nausea and vomiting.
For series [4], the system named is post operative vomiting and nausea.

Structures are written as SMILES. “Also recorded” adds a separate entry of the source.

On to `CN(C)CCOC(c1ccccc1)c1ccccc1` [diphenhydramine], for which the “preventing gastrointestinal symptoms caused by vection-induced motion sickness, versus dried chickweed herb placebo” value in series [1] was “more effective than dried chickweed herb placebo”.
Regarding `O=C(CCCN1CC=C(n2c(=O)[nH]c3ccccc32)CC1)c1ccc(F)cc1` [droperidol], the “statistically significant decrease in post-operative nausea or vomiting versus placebo” value in series [2] is listed as “no differences; also recorded: Neither drug showed a”.
As to `CCN(CC)CCNC(=O)c1cc(Cl)c(N)cc1OC` [metochlopramide], the “post-operative nausea and vomiting control versus placebo” value in series [3] (1.0 g ginger or 10 mg metochlopramide orally prior to gynecological surgery, P < .05) is given as “significantly more effective than placebo”. Moreover, the “post-operative vomiting versus placebo” value in series [3] (both active drugs vs placebo) is “less vomiting”. Moreover, in series [4] (1 gram ginger powder or metochlopramide one hour prior to anaesthesia, laparoscopic gynaecological surgery), the “post-operative nausea versus placebo” value is recorded as “significantly more effective than placebo”. In addition, the patients nauseated entry in series [4] (after laparoscopic gynaecological surgery, 41% with placebo) was “placebo, 27%”. Further, the “frequency of emesis between the three arms” value in series [4] (ginger vs metochlopramide vs placebo) is given as “no significant differences”.
